From patent US12358901B2, “KV3 modulators” (priority 2018, dated 2025)

Legend:
[1] = target: human Kv3.1 channels (hKv3.1) (Homo sapiens, UniProt P48547); assay: cell-based; type: cell-based; settings: for Kv3.1 pEC50: HEK-hKv3.1 cells, -15 mV voltage step, normalised to 50 microM reference compound; for Kv3.1 max R %: maximum response relative to reference compound (50 microM)
Excerpt: The ability of the compounds of the invention to modulate the voltage-gated potassium channel subtypes Kv3.3/Kv3.2/Kv3.1 may be determined using the following assay. Analogous methods may be used to investigate the ability of the compounds of the invention to modulate other channel subtypes.
To assess compound effects on human Kv3.1 channels (hKv3.1):
Human embryonic kidney (HEK)-hKv3.1 cell line is generated by transfecting HEK-293 cells with an expression vector with human Kv3.1 (NM_004976.4). Cells are cultured with MEM supplemented with 10% Heat-Inactivated FBS, 2 mM L-glutamine, 1% Penicillin-Streptomycin, and 0.6 mg/ml of Geneticin (G418). HEK-hKv3.1b cells were amplified in T175 cm2 flask at 37° C. with 5% CO2, using MEM amplification medium, containing the G418 selection antibiotic (0.6 mg/ml). Cells were detached every 3-4 days, using DPBS to wash twice the flask, then TrypLE to dislodge the cells, and re-plated at a density of 2-4×10^6 cells/flask.
The day of the experiment, cells are removed from the incubator and the culture medium removed. Cells are washed with 5 ml of Dulbecco's PBS (DPBS) calcium and magnesium free and detached by the addition of 3 ml Versene (Invitrogen, Italy) followed by a brief incubation at 37° C. for 5 minutes. The flask is tapped to dislodge cells and 10 ml of DPBS containing calcium and magnesium is added to prepare a cell suspension. The cell suspension is then placed into a 15 ml centrifuge tube and centrifuged for 2 min at 1200 rpm. After centrifugation, the supernatant is removed and the cell pellet re-suspended in 4 ml of DPBS containing calcium and magnesium using a 5 ml pipette to break up the pellet. Cell suspension volume is then corrected to give a cell concentration for the assay of approximately 3 million cells per ml.
Experiments are conducted at r.t. using IonWorks Quattro™ planar array electrophysiology technology (Molecular Devices Corp.) with PatchPlate™ PPC. Stimulation protocols and data acquisition are carried out using a microcomputer (Dell Pentium 4). Planar electrode hole resistances (Rp) are determined by applying a 10 mV voltage step across each well. These measurements are performed before cell addition. After cell addition and seal formation, a seal test is performed by applying a voltage step from −80 mV to −70 mV for 160 ms. Following this, amphotericin-B solution is added to the intracellular face of the electrode to achieve intracellular access. Cells are held at −70 mV. Leak subtraction is conducted in all experiments by applying 50 ms hyperpolarizing (10 mV) prepulses to evoke leak currents followed by a 20 ms period at the holding potential before test pulses.
For hKv3.2 and hKv3.1, assays from the holding potential of −70 mV, a first test pulse at −15 mV was applied for 100 ms and after 100 ms at −70 mV a second pulse at +40 mV was applied for 50 ms. Cells were then maintained for 100 ms at −100 mV and another pulse from −70 mV to +40 mV (duration 50 ms) was applied to clamp later the voltage at −40 mV during 200 ms
The intracellular solution contains the following (in mM): K-gluconate 100, KCl 54, MgCl2 3.2, HEPES 5, adjusted to pH 7.3 with KOH. Amphotericin-B solution is prepared as 50 mg/ml stock solution in DMSO and diluted to a final working concentration of 0.1 mg/ml in intracellular solution. The external solution is Dulbecco's Phosphate Buffered Saline (DPBS) and contained the following (in mM): CaCl2 0.90, KCl 2.67, KH2PO4 1.47, MgCl·6H2O 0.493, NaCl 136.9, Na3PO4 8.06, with a pH of 7.4.
Compounds of use in the invention (or reference compounds such as N-cyclohexyl-N-[(7,8-dimethyl-2-oxo-1,2-dihydro-3-quinolinyl)methyl]-N-phenylurea) are dissolved in dimethylsulfoxide (DMSO) at a stock concentration of 10 mM. These solutions are further diluted with DMSO using a Biomek FX (Beckman Coulter) in a 384 compound plate. Each dilution (1 μL) is transferred to another compound plate and external solution containing 0.05% pluronic acid (66 μL) is added. […]

[2] = Determination of brain tissue binding (equilibrium dialysis); type: in vitro ADME; settings: Sprague Dawley, rat whole brain homogenate, 5 h at 37° C.
Protocol: Sprague Dawley rat whole blood, collected on the week of the experiment using K3-EDTA as an anti-coagulant, is diluted with isotonic phosphate buffer 1:1 (v/v). Sprague Dawley rat whole brain, stored frozen at −20° C., is thawed and homogenised in artificial cerebrospinal fluid (CSF) 1:2 (w/v).
An appropriate amount of test compound is dissolved in DMSO to give a 10 millimolar solution. Further dilutions, to obtain a 166.7 micromolar working solution are then prepared using 50% acetonitrile in MilliQ water. This working solution is used to spike the blood to obtain a final concentration of 0.5 micromolar in whole blood. Similarly, the working solution is used to spike brain samples to obtain a final concentration of 5 micromolar in whole brain. From these spiked blood and brain preparations, control samples (n=3), are immediately extracted and used to calculate the initial recovery of the test items.
150 microL of compound-free buffer (isotonic phosphate buffer for blood or artificial CSF buffer for brain) is dispensed in one half-well and 150 microL of spiked matrix (blood or brain) is loaded in the other half-well, with the two halves separated by a semi-permeable membrane. After an equilibration period of 5 h at 37° C., 50 microL of dialysed matrix (blood or brain) is added to 50 microL of corresponding compound-free buffer, and vice-versa for buffer, such that the volume of buffer to matrix (blood or brain) remains the same. Samples are then extracted by protein precipitation with 300 microL of acetonitrile containing rolipram (control for positive ionization mode) or diclofenac (control for negative ionization mode) as internal standards and centrifuged for 10 min at 3000 rpm. Supernatants are collected (100 microL), diluted with 27% AcN in MilliQ water (200 microL) and then injected into an HPLC-MS/MS or UPLC-MS/MS system to determine the concentration of test compound present.
Blood and brain tissue binding are then determined using the following formulas: Afu=Buffer/Blood or Afu=CSF/Brain
Where Afu=apparent fraction unbound; Buffer=analyte/internal standard ratio determined in the buffer compartment; Blood=analyte/internal standard ratio determined in the blood compartment; Brain=analyte/internal standard ratio determined in the brain compartment.
[formula] where: fucr=Fraction unbound corrected; D=matrix dilution factor (D=2 for blood and D=3 for brain).
Then: % Binding=(1−fucr)×100 % Unbound=100−% Bound Brain/Blood Partition Ratio (Kbb) Determination

[3] = test system: Salmonella typhimurium (TA1535, TA1537, TA98 and TA100) and Escherichia coli WP2 uvrA (pKM101); assay: Ames testing (bacterial mutagenicity, with and without S9-mix); settings: absence and presence of S9-mix; for Ames Result (compound): 5 to 5000 ug/plate; for Ames Result (associated aniline): aniline associated with the compound

SMILES	EC50 [1]	pEC50 and maxR in the Kv3.1 assay (in words) [1]	Kv3.1 pEC50 [1]	Kv3.1 max R % [1]	fraction unbound at 5 h, 5 micromolar [2]	Ames Result (compound) [3]	Ames Result (associated aniline) [3]
Cc1ccc(Oc2cnc(N3C(=O)NC(C)(C)C3=O)cn2)c2c1OCC21CC1 [Example 1, 5,5-dimethyl-3-[5-(7-methylspiro[2H-benzofuran-3,1′-cyclopropane]-4-yl)oxypyrazin-2-yl]imidazolidine-2,4-dione]	2750 nM	high pEC50 and high maxR	5.47	164%	0.043	Non- mutagenic	
Cc1ccc(Oc2ccc(N3C(=O)NC(C)(C)C3=O)cn2)c2c1OCC21CC1 [RE6, reference compound]			5.58	144%	0.028	Non- mutagenic	
Cc1ccc(Oc2ccc(N)cn2)c2c1OCC21CC1 [aniline associated with RE6/RE11]							Mutagenic for TA1535 in the presence of metabolic activation at 150 ug/plate
Nc1cnc(Oc2cccc3c2C2(CC2)CO3)cn1 [aniline for Example 10]							Non-mutagenic
Cc1ccc(Oc2cnc(N)cn2)c2c1OCC21CC1 [aniline for Examples 1 and 9]							Non-mutagenic
